# Laboratory results published in PubChem BioAssay (NCI).
# “And” between values parts separate entries of the source, which are not always exact repeats. Identical values can stand only once.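 All cell lines were grown in 96-well plates and treated with compound for 48 hours. Here, GI50 denotes the concentration required for 50% inhibition of growth. TGI denotes the concentration required for complete inhibition of growth.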
# How the values were obtained:
# Assay in all cases: growth of human tumour cells (NCI), 48 h
# LOX IMVI melanoma = system: LOX IMVI melanoma
# NCI-H522 lung = system: NCI-H522 lung
# NCI-H23 lung = system: NCI-H23 lung
# A549 NSCLC = system: A549 NSCLC
# K-562 leukemia = system: K-562 leukemia
# MOLT-4 leukemia = system: MOLT-4 leukemia
# CAKI-1 renal = system: CAKI-1 renal
# M14 melanoma = system: M14 melanoma
# EKVX NSCLC = system: EKVX NSCLC
# SK-MEL-2 melanoma = system: SK-MEL-2 melanoma
Compound,TGI (LOX IMVI melanoma),TGI (NCI-H522 lung) [µM],TGI (NCI-H23 lung),TGI (A549 NSCLC),TGI (K-562 leukemia),TGI (MOLT-4 leukemia),TGI (CAKI-1 renal),TGI (M14 melanoma),TGI (EKVX NSCLC),TGI (SK-MEL-2 melanoma),GI50 (LOX IMVI melanoma) [µM],GI50 (NCI-H522 lung) [µM],GI50 (NCI-H23 lung),GI50 (A549 NSCLC) [µM],GI50 (K-562 leukemia),GI50 (MOLT-4 leukemia),GI50 (CAKI-1 renal) [µM],GI50 (M14 melanoma) [µM],GI50 (EKVX NSCLC) [µM],GI50 (SK-MEL-2 melanoma)
CC(C)(C)C1=NO[C@H]2[C@@H](NC(=O)c3ccccc3)CC[C@@H]12,> 100 µM,> 100,> 100 µM,> 100 µM,> 100 µM,> 100 µM,> 100 µM,> 100 µM,,,,,,,,,,,,
CCOC1c2nc3ccccc3nc2-c2ccccc2N1C(C)=O (centres undefined),,,> 100 µM,> 100 µM,> 100 µM,> 100 µM,> 100 µM,> 100 µM,> 100 µM,> 100 µM,,,,,,,,,,
O=C(Nc1nc(=S)[nH][nH]1)C(=O)C(c1cnc2ccc([N+](=O)[O-])cc2n1)[N+](=O)[O-] (centres undefined),> 100 µM,> 100,> 100 µM,> 100 µM,> 100 µM,> 100 µM,> 100 µM,> 100 µM,> 100 µM,,,,,,,,,,,
CCOC(=O)c1cn(C)c2c(OC)c3ccccc3c(OC)c2c1=O,58.6 µM,> 100,37.8 µM,> 100 µM,> 100 µM,51.7 µM,76.8 µM,45 µM,,,20.7,> 100,16.1 µM,36.4,36.4 µM,18.9 µM,29.7,19.8,,
Nc1nc(Cl)c2ncn(Cc3ccc(C45CC6CC(CC(C6)C4)C5)c(OCc4cc(F)c(F)cc4F)c3)c2n1,8.64 µM,12.3,,5.89 µM,,2.71 µM,5.48 µM,,67.1 µM,20.4 µM,1.88,2.8,,1.94,,0.837 µM,2.37,,10.8,5.84 µM
O=[N+]([O-])/C=C/c1ccc2ccccc2c1,7.81 µM,33.1,> 23.5 µM,> 58.5 µM,9.42 µM,,25.7 µM,> 23.7 µM,> 55 µM,> 61.6 µM,,,,,,,,,,
CCN(CC)CCNc1n[n+]([O-])c2cc([N+](=O)[O-])ccc2[n+]1[O-],2.06 µM and 1.96 µM and 1.83 µM,,1.55 µM and 1.58 µM and 1.94 µM,3.11 µM and 3.08 µM and 2.48 µM,1.23 µM and 1.28 µM and 0.926 µM,0.292 µM and 0.198 µM and 0.176 µM,1.79 µM and 2.7 µM and 1.97 µM,2.17 µM and 2.63 µM and 2.02 µM,8.38 µM and 5.78 µM and 5.3 µM,3 µM and 2.02 µM and 2.88 µM,,,0.117 µM and 0.275 µM and 0.146 µM,,0.296 µM and 0.199 µM and 0.124 µM,0.0833 µM and 0.0383 µM and 0.0339 µM,,,,1.39 µM and 0.639 µM and 0.575 µM
Cc1ccc(C(=O)Nc2ccc(Oc3cc4cnn(C)c4cc3-c3cn[nH]c3)c(F)c2)c(=O)n1-c1ccc(F)cc1,> 100 µM,> 100,> 100 µM,> 100 µM,> 100 µM,> 100 µM,> 100 µM,> 100 µM,,> 100 µM,2.46,32,8.97 µM,7.6,5.75 µM,> 100 µM,3.25,2.96,,18.1 µM
COc1ccc(/C=C/C(=O)c2c(-c3ccccc3)nn(C)c(=O)c2N2CCCCC2)cc1,38.2 µM,27.3,50.7 µM,> 100 µM,63 µM,23.1 µM,92.4 µM,66 µM,> 100 µM,,,,,,,,,,,
